Like-named read-outs stand apart in the source and are kept apart here.
Key:
DLD-1 cells = assay: Cell proliferation PAD assay, DLD-1; assay type: cell-based; conditions: Homo sapiens, DLD1 cells, 6pt, 48 hours
From the text: (§1) Table 3 illustrates the inhibitory activity of the compounds of the invention determined by the PAD assay described above in a number of cell types. Apoptosis was not
(§2) Cell lines used are available from American Type Culture Collection (ATCC), for example, cell cultures containing A549 (ATCC# CCL-185), HeLa (ATCC# CCL-2), HCT116 ATTC# CCL-247), and H1299 (ATCC# CRL-5803) cells were maintained in T175 flasks following the ATCC recommended media and handling procedures. […] A 20,000 cells/ml solution was made for plating. Cells were plated in black Packard 96 well plates by placing 100 μl per well (2,000 cells per well). […] The definitions of the cell types used are as follows: A549 is lung carcinoma; HI 299 is non-small cell lung carcinoma; HI 155 is non-small cell lung carcinoma; AsPC-1 is pancreatic adenocarcinoma; Caov-3 is ovarian adenocarcinoma; COLO 205 is colorectal adenocarcinoma; DLD-1 colorectal adenocarcinoma; HCT116 is colorectal carcinoma; DU 145 is prostate carcinoma; ES-2 is ovarian clear cell carcinoma; H460 is large cell lung carcinoma; HELA is cervical adenocarcinoma; MIA PaCa-2 is pancreatice carcinoma; OVCAR-3 is ovarian adenocarcinoma; OVCAR8 is ovarian carcinoma; PC3 is prostate adenocarcinoma; SK-OV-3 is ovarian adenocarcinoma; SU86.86 is pancreatic carcinoma; TOV-21G is avarian clear cell carcinoma; U2OS is bone osteosarcoma; is ASPC-I is pancreatic adenocarcinoma; BXPC-3 is pabcreatic adenocarcinoma; HL60 is promyeloblast promyelocytic leukemia; K562 is bone marrow chronic myelogenous leukemia; L1210 is mouse lymphocytic leukemia; MOLT3 is T lymphoblast acute lymphoblastic leukemia; MOLT4 is T lymphoblast acute lymphoblastic leukemia; SW620 is colorectal adenocarcinoma; THP-1 is monocyte acute monocytic leukemia; U937 is histiocytic lymphoma; and UACC-257 is melanoma.
(§3) Compounds and additional media were added 24 hours after cell plating. A compound master plate was created with concentrations 500 times greater than the final concentration added to the cells. All compound testing was done in duplicate using 6.3 fold dilutions starting with 10 mM. All outside wells (and 4 internal wells) were DMSO controls. Taxol and at least one additional control were run on all plates. Three microliters of the compound master plate were added to deep well blocks containing 750 μl of RPMI media. One hundred microliters were transferred from the compound/media deep well blocks to the plated cells resulting in a 500 fold dilution of the compounds. Cells were grown at 37° C., 5% CO2 for 48 hours.
(§4) Cells to be analyzed by photography were fixed and stained. One hundred microliters of media were removed and 100 μl of 9.3% formamide was added to each well. Plates were left on the benchtop for 45 minutes. A staining solution containing 1.55 μl of 1 mg/ml DAPI added to 18.75 ml PBS was warmed for 15 minutes at 37° C. The cells were aspirated prior to washing with 100 μl of PBS. Seventy microliters of PBS were aspirated and 170 μl of the DAPI solution were added to each well of fixed cells. Plates were left at room temperature for one hour then aspirated and washed twice with 100 μl of PBS. The stained cells were left at 4° C. for a minimum of 16 hours before photographic analysis with Array Scan II (Cellomics). Analysis of the photographic images to determine numbers of live cells (proliferation), apoptotic cells and dead cells, were according to the methods described in U.S. Utility patent application Ser. No. 10/652,440, which incorporated herein in its entirety.

HCT116 cells = assay: Cell proliferation PAD assay, HCT116; assay type: cell-based; conditions: Homo sapiens, 48 hours
From the text: as §1, §2, §3, §4

HELA cells = assay: Cell proliferation PAD assay, HeLa; assay type: cell-based; conditions: Homo sapiens, 6pt, 48 hours
From the text: as §1, §2, §3, §4

ROC1/CUL1 = biological target: T1, ROC1/CUL1 (Homo sapiens, UniProt P62877+Q13616); assay: ROC1/CUL1 ubiquitin ligase assay (SCF assay); assay type: biochemical
T1 construct: made in house
T1 sequence (P62877 whole entry): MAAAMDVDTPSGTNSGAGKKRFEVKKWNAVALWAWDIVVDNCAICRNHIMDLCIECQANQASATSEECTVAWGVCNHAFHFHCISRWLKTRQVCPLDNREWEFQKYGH
T1 sequence (Q13616 whole entry): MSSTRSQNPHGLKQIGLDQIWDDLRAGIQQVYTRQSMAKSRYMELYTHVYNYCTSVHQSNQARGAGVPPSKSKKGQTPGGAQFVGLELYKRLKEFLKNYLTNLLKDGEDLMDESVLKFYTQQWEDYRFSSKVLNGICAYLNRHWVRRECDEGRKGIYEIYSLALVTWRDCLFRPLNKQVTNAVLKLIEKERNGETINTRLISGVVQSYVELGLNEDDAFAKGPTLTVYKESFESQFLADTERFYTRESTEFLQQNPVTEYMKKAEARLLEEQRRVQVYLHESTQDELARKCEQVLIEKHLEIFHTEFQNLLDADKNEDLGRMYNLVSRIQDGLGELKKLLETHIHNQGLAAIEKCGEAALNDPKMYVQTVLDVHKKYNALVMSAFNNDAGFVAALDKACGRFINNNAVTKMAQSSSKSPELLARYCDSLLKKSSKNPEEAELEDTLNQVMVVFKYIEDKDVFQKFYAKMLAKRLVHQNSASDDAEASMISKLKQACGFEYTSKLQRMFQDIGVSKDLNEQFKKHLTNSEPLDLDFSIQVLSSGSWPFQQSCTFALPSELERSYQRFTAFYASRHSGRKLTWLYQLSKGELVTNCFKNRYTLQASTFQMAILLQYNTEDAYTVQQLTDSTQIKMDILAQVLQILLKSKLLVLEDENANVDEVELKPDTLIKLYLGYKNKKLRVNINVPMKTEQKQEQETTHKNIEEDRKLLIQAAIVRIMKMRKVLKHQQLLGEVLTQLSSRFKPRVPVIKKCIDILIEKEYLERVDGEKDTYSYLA
Summary of the method: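 His-ROC1/CUL1 (100 ng/well) with E1 (5 ng/well), UbcH5c E2 (25 nl/well) and Flag-ubiquitin (100 ng) on nickel-coated plates; the reaction solution held Tris pH 7.5, MgCl2, DTT and 2.5 mM ATP. Compounds were added and the reaction ran 1 h at RT. Bound ubiquitin was read by anti-Flag/HRP luminescence, giving IC50 across compound concentrations.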

[1] = HCT-116, 6pt, read-out: HCT116 6pt

Row | IC50 (DLD-1 cells) [µM] | IC50 (HCT116 cells; [1]) [µM] | IC50 (HELA cells) [µM] | IC50 (ROC1/CUL1) [µM] | IC50 (HCT116 cells; HCT-116, 9pt, read-out: HCT116 9pt) [µM] | SMILES
1 | < 1 | < 1 | < 1 |  |  | O=[N+]([O-])c1ccc(SCCO)c2nonc12 [compound 150, 2-[(7-nitro-2,1,3-benzoxadiazol-4-yl)thio]ethanol]
2 | 1 to 20 | 1 to 20 | 1 to 20 |  |  | O=S(=O)(Nc1ccc2cn[nH]c2c1)c1ccc(Cl)c2nonc12 [compound 220, 7-chloro-N-1 H-indazol-6-yl-2,1,3-benzoxadiazole-4-sulfonamide]
3 |  |  | ≥ 20 | ≥ 20 | < 1 | CC1(C)CCN(S(=O)(=O)c2c(Cl)ccc3nonc23)CC1 [compound 245, 5-chloro-4-[(4,4-dimethylpiperidin-1-yl)sulfonyl]-2,1,3-benzoxadiazole]
4 | 1 to 20 | < 1 | 1 to 20 |  |  | Cc1cc(C)cc(-c2ccc([N+](=O)[O-])c3nonc23)c1 [compound 286, 4-(3,5-Dimethylphenyl)-7-nitro-2,1,3-benzoxadiazole]

Second part, the compound before the results:

Row | SMILES | IC50 (DLD-1 cells) [µM] | IC50 (HCT116 cells; [1]) [µM] | IC50 (HELA cells) [µM] | IC50 (ROC1/CUL1) [µM] | IC50 (HCT116 cells; HCT-116, 9pt, read-out: HCT116 9pt) [µM]
5 | COC(=O)c1ccc(NS(=O)(=O)c2c(Cl)ccc3nonc23)cc1 [compound 178, methyl 4-{[(5-chloro-2,1,3-benzoxadiazol-4-yl)sulfonyl]amino}benzoate] | < 1 | < 1 | < 1 |  | 
6 | O=S(=O)(c1c(Cl)ccc2nonc12)N1CCN(c2ncc(C(F)(F)F)cc2Cl)CC1 [compound 179, 5-chloro-4-({4-[3-chloro-5-(trifluoromethyl)pyridin-2-yl]piperazin-1-yl}sulfonyl)-2,1,3-benzoxadiazole] | 1 to 20 | 1 to 20 | 1 to 20 |  | 
7 | Cc1cccc(N2CCN(S(=O)(=O)c3c(Cl)ccc4nonc34)CC2)n1 [compound 202, 5-chloro-4-{[4-(6-methylpyridin-2-yl)piperazin-1-yl]sulfonyl}-2,1,3-benzoxadiazole] | < 1 | < 1 | 1 to 20 |  | 

— patent US20050282818A1, “Ubiquitin ligase inhibitors” (Rigel Pharmaceuticals, Inc., priority 2004, published 2005)
